Assay results: patent US20210386068A1, “COMPOSITIONS COMPRISING PYRIDINE CARBOXYLATE HERBICIDES AND VERY LONG CHAIN FATTY ACID (VLCFA) SYNTHESIS INHIBITOR HERBICIDES” (priority 2018, published 2021)
“And” between values parts separate entries of the source, which are not always exact repeats. Equal values may be shown once.

Columns and labels:
[1] = system: Veronica hederifolia (ivy-leaved speedwell, VERHE); assay: Greenhouse postemergence herbicidal effect, visual injury 20-22 d after spraying, ivy-leaved speedwell (VERHE); type: in vivo
Description: (§1) Seeds of the desired test plant species were planted in a 90:10% v/v (volume/volume) mixture of PRO-MIX® BX (Premier Tech Horticulture, Quakertown, Pa., USA) and PROFILE® GREENS GRADE™ (Profile Products LLC, Buffalo Grove, Ill., USA) planting mixture, which typically has a pH of 5.2 to 6.2 and an organic matter content of at least 50 percent, in plastic pots with a surface area of 103.2 square centimeters (cm^2). In some aspects, to ensure good germination and healthy plants, a fungicide treatment and/or other chemical or physical treatment was applied. The plants were grown for 7-36 days (d) in a greenhouse with an approximate 14-hour (h) photoperiod which was maintained at about 23° C. during the day and 22° C. during the night. Nutrients and water were added on a regular basis and supplemental lighting was provided with overhead metal halide 1000-Watt lamps as necessary. The plants were employed for testing when they reached the second or third true leaf stage.
(§2) Emulsifiable concentrates of each of each pyridine carboxylate herbicide (Compound A or Compound B) were prepared at 100 grams acid equivalent per liter (g ae/L). The emulsifiable concentrates also included a safener, cloquintocet-mexyl, at 120 grams active ingredient per liter (g ai/L). An aliquot of each emulsifiable concentrate was placed in a 25 mL glass vial and diluted with an aqueous mixture of 1.25% (v/v) ACTIROB® B esterified rapeseed oil (Bayer Crop Science, Research Triangle Park, N.C., USA) or MSO® Concentrate with LECI-TECH® methylated soybean oil (Loveland Products, Loveland, Colo., USA) to obtain concentrated stock solutions at the highest application rate for each herbicide, based upon a 12 milliliter (mL) application volume at a rate of 187 liters per hectare (L/ha). The concentrated stock solutions were further diluted with an aqueous mixture of 1.25% v/v ACTIROB® B or MSO® Concentrate with LECI-TECH® to obtain stock solutions at reduced application rates for each herbicide. Spray solutions of the herbicide combinations (Compound A or Compound B plus VLCFA synthesis inhibitor herbicide) were prepared by adding weighed amounts or aliquots of the VLCFA synthesis inhibitor herbicide to the stock solutions of Compound A or Compound B to form 12-mL spray solutions in two-way combinations.
(§3) The spray solutions were applied to the plant material with an overhead Mandel track sprayer equipped with 8002E nozzles calibrated to deliver 187 L/ha over an application area of 0.503 square meters (m^2) at a spray height of 18 inches ([…] (cm)) above the average plant canopy. Control plants were sprayed in the same manner with the solvent blank. All pyridine carboxylate herbicide (component a) application rates are given as “g ae/ha” and all VLCFA synthesis inhibitor herbicide (component b) application rates are given as “g ai/ha.”
(§4) The treated plants and control plants were placed in a greenhouse as described above and watered by sub-irrigation to prevent wash-off of the test compounds. After 20-22 d, the condition of the test plants as compared with that of the control plants was determined visually and scored on a scale of 0 to 100 percent where 0 corresponds to no injury and 100 corresponds to complete kill.

winter wheat (TRZAW) = assay: Greenhouse postemergence crop phytotoxicity, visual injury 20-22 d after spraying, winter wheat (TRZAW); type: in vivo, Triticum aestivum
Description: as §1, §2, §3, §4

[2] = system: Matricaria inodora (scentless chamomile, MATIN); assay: Greenhouse postemergence herbicidal effect, visual injury 20-22 d after spraying, scentless chamomile (MATIN); type: in vivo
Description: as §1, §2, §3, §4

[3] = system: Chenopodium album L. (common lambsquarters, CHEAL); assay: Greenhouse postemergence herbicidal effect, visual injury 20-22 d after spraying, common lambsquarters (CHEAL); type: in vivo
Description: as §1, §2, §3, §4

[4] = system: Cyanus segetum (cornflower, CENCY); assay: Greenhouse postemergence herbicidal effect, visual injury 20-22 d after spraying, cornflower (CENCY); type: in vivo
Description: as §1, §2, §3, §4

[5] = system: Brassica napus (spring rape, BRSNN); assay: Greenhouse postemergence herbicidal effect, visual injury 20-22 d after spraying, spring rape (BRSNN); type: in vivo
Description: as §1, §2, §3, §4

[6] = system: Papaver rhoeas (common poppy, PAPRH); assay: Greenhouse postemergence herbicidal effect, visual injury 20-22 d after spraying, common poppy (PAPRH); type: in vivo
Description: as §1, §2, §3, §4

[7] = system: Hordeum vulgare (spring barley, HORVS); assay: Greenhouse postemergence crop phytotoxicity, visual injury 20-22 d after spraying, spring barley (HORVS); type: in vivo; settings: for % visual injury Obs: HORVS
Description: as §1, §2, §3, §4

[8] = system: Capsella bursa-pastoris (shepherd's purse, CAPBP); assay: Greenhouse postemergence herbicidal effect, visual injury 20-22 d after spraying, shepherd's purse (CAPBP); type: in vivo
Description: as §1, §2, §3, §4

[9] = system: Amaranthus retroflexus (pigweed, AMARE); assay: Greenhouse postemergence herbicidal effect, visual injury 20-22 d after spraying, pigweed (AMARE); type: in vivo
Description: as §1, §2, §3, §4

[10] = system: Brassica napus (winter rape, BRSNW); assay: Greenhouse postemergence herbicidal effect, visual injury 20-22 d after spraying, winter rape (BRSNW); type: in vivo; settings: for % visual injury Obs: BRSNW
Description: as §1, §2, §3, §4

[11] = system: Matricaria discoidea (pineapple weed, MATMT); assay: Greenhouse postemergence herbicidal effect, visual injury 20-22 d after spraying, pineapple weed (MATMT); type: in vivo
Description: as §1, §2, §3, §4

[12] = system: Lamium purpureum (purple deadnettle, LAMPU); assay: Greenhouse postemergence herbicidal effect, visual injury 20-22 d after spraying, purple deadnettle (LAMPU); type: in vivo
Description: as §1, §2, §3, §4

N#CCOC(=O)c1nc(-c2ccc3cc[nH]c3c2F)c(F)c(N)c1Cl [Compound A, cyanomethyl 4-amino-3-chloro-5-fluoro-6-(7-fluoro-1H-indol-6-yl)pyridine-2-carboxylate]
% visual injury VERHE Obs ([1]; Compound A 7.5 g/ha): 68% | % visual injury VERHE Obs ([1]; Compound A 10 g/ha): 73% | % visual injury VERHE Obs ([1]; Compound A 15 g/ha): 75% | % visual injury TRZAW Obs (winter wheat (TRZAW); Compound A 7.5 g/ha): 0% | % visual injury TRZAW Obs (winter wheat (TRZAW); Compound A 10 g/ha): 0% | % visual injury TRZAW Obs (winter wheat (TRZAW); Compound A 15 g/ha): 0% | % visual injury MATIN Obs ([2]; Compound A 7.5 g/ha): 55% | % visual injury MATIN Obs ([2]; Compound A 10 g/ha): 60% | % visual injury MATIN Obs ([2]; Compound A 15 g/ha): 83% | % visual injury Obs ([3]; Compound A 7.5 g/ha alone): 88% and 70% and 60% and 75% | % visual injury Obs ([3]; Compound A 10 g/ha alone): 93% and 83% and 90% and 80% | % visual injury CENCY Obs ([4]; Compound A 7.5 g/ha): 75% | % visual injury CENCY Obs ([4]; Compound A 10 g/ha): 78% | % visual injury CENCY Obs ([4]; Compound A 15 g/ha): 80% | % visual injury Obs ([5]; Compound A 7.5 g/ha alone): 55% | % visual injury Obs ([5]; Compound A 10 g/ha alone): 60% and 70% | % visual injury PAPRH Obs ([6]; Compound A 7.5 g/ha): 100% | % visual injury PAPRH Obs ([6]; Compound A 10 g/ha): 99% | % visual injury PAPRH Obs ([6]; Compound A 15 g/ha): 100% | % visual injury HORVS Obs ([7]; Compound A 7.5 g/ha): 0% | % visual injury HORVS Obs ([7]; Compound A 10 g/ha): 0% | % visual injury HORVS Obs ([7]; Compound A 15 g/ha): 0% | % visual injury Obs ([7]; Compound A 7.5 g/ha alone): 0% and 8% | % visual injury Obs ([7]; Compound A 10 g/ha alone): 0% | % visual injury CAPBP Obs ([8]; Compound A 7.5 g/ha): 45% | % visual injury CAPBP Obs ([8]; Compound A 10 g/ha): 55% | % visual injury CAPBP Obs ([8]; Compound A 15 g/ha): 55% | % visual injury Obs ([9]; Compound A 7.5 g/ha alone): 78% and 80% and 70% and 90% | % visual injury Obs ([9]; Compound A 10 g/ha alone): 73% and 85% and 98% | % visual injury Obs ([10]; Compound A 7.5 g/ha alone): 35% | % visual injury Obs ([10]; Compound A 10 g/ha alone): 43% and 40% | % visual injury BRSNW Obs ([10]; Compound A 7.5 g/ha): 60% | % visual injury BRSNW Obs ([10]; Compound A 10 g/ha): 65% | % visual injury BRSNW Obs ([10]; Compound A 15 g/ha): 73% | % visual injury MATMT Obs ([11]; Compound A 7.5 g/ha): 20% | % visual injury MATMT Obs ([11]; Compound A 10 g/ha): 20% | % visual injury MATMT Obs ([11]; Compound A 15 g/ha): 63% | % visual injury LAMPU Obs ([12]; Compound A 7.5 g/ha): 68% | % visual injury LAMPU Obs ([12]; Compound A 10 g/ha): 73% | % visual injury LAMPU Obs ([12]; Compound A 15 g/ha): 73%
